From patent US20250213536A1, “DETECTING AND TREATING GROWTH HORMONE DEFICIENCY” (Lumos Pharma, Inc., priority 2015, published 2025)
“Also recorded” adds a separate entry of the source. Where a name gives a salt, the structure may show the parent alone.

Legend:
[1] = system: GHD children; experiment: Phase IIb therapeutic study in pediatric GH deficiency: height velocity after 6 months of treatment; type: in vivo, human; conditions: for Delta Height Velocity, Biological Age (BA) / Delta Height Velocity, Chronological Age (CA): general population of GHD children; for height velocity in the LOW group compared with the EQUAL group, in words: 6 months of treatment; for growth (height velocity) response, GH compared with MK-0677, in words: 6 months
Description: In the Phase IIb study, 24 children were treated with 0.8 mg/kg/d MK-0677. […] This can also be expressed as a height velocity standard deviation (SD) (or standard deviations-also SD) at baseline of 0.4±2.1 and 3.5±2.0 at 6 months. […] Change in height velocity SD for chronological age was 0.4±2.1 for placebo and 3.5±2.0 for treatment with MK-0677 after 6 months at a dose of 0.8 mg/kg/d. Twenty of the 22 placebo-treated children were then treated with standard Growth Hormone (GH) treatment (daily subcutaneous injection of rhGH, 0.043 mg/kg/day). […] Therapeutic Study in Pediatric GH Deficiency: A Phase IIb study was run to determine whether or not MK-0677 could be used to treat pediatric GHD. MK-0677 was compared against placebo and rhGH injections according to the following protocol. Bone age was determined using the atlas matching method of Greulich and Pyle. Protocol: 6 months of once-daily oral sucrose formulation solution. Tables 6A-6E show the height velocity for EQUAL growth potential children treated with either 0.8 mg/kg/daily po or 0.4 mg/kg/daily po MK-0677 compared with rhGH (0.3 mg/kg/week; ˜42 μg/kg/daily sc injection). […] Values are mean (SD). Tables 7A-7C compare the height velocity for low growth potential patients (LOW) with equivalent growth potential compared to rhGH (EQUAL). Values are mean (SD).

[2] = system: GHD children; conditions: cited from earlier work
[3] = system: hypothalamic-pituitary GH axis; experiment: MK-0677 challenge test: peak serum GH after a single oral dose of MK-0677; type: in vivo, human; conditions: for Peak GH response to MK-0677: baseline; for Peak GH to MK-0677: single dose 0.8 mg/kg
Description: Testing for GH secretion with MK-0677: A single, oral dose of MK-0677 is administered to a patient and sufficient blood samples are taken prior to and after administration (e.g., 15 minutes before and t=0, 30, 60, 90, and 120 minutes after administration) to measure the peak GH secretion. An example of the amount of MK-0677 administered is 0.8 mg/kg. In an aspect, the patient being tested will have fasted overnight (abstinence from all food and drink but water). [table] Subjects will report to the clinic in the morning after an overnight fast from all food and drink except water. A catheter will be inserted approximately 1 hour before the administration of MK 0677. Two baseline measures will be taken a t=−15 minutes and t=0 minutes (time at which subject is administered the dose). Subjects will be given a dose of 0.8 mg/kg MK-0677 as 2-mg tablets to be taken orally. Blood samples will be taken subsequently at t=30, 60, 90, 120 minutes. In addition at t=−15 and 120 minutes, samples will be drawn for a serum chemistry panel. At the conclusion of the test, the catheter will be removed. All blood samples will be analyzed for GH, prolactin, and cortisol by a core clinical laboratory.

[4] = Adequate GH Secretion Potential, MK-0677 0.8 mg/kg/d (N = 15)
[5] = Low GH Secretion Potential, MK-0677 0.8 mg/kg/d (N = 9)
[6] = Adequate GH Secretion Potential, GH 0.3 mg/kg/wk (N = 15)
[7] = GH after placebo 0.3 mg/kg/week (n = 20)
[8] = Low GH Secretion Potential, GH 0.3 mg/kg/wk (N = 5)

Molecule: CC(C)(N)C(=O)N[C@H](COCc1ccccc1)C(=O)N1CCC2(CC1)CN(S(C)(=O)=O)c1ccccc12 [MK-0677, Ibutamoren mesylate]
- Delta Height Velocity, Biological Age (BA) ([1]; 0.4 mg/kg/d (n = 22)): 2.6 (1.5) standard deviations
- Delta Height Velocity, Chronological Age (CA) ([1]; 0.4 mg/kg/d (n = 22)): 2.6 (1.7) standard deviations
- Delta Height Velocity, Biological Age (BA) ([1]; 0.8 mg/kg/d (n = 22)): 3.3 (1.8) standard deviations
- Delta Height Velocity, Chronological Age (CA) ([1]; 0.8 mg/kg/d (n = 22)): 3.5 (2.0) standard deviations
- height velocity in the LOW group compared with the EQUAL group, in words [1]: lower than with the EQUAL group
- Delta height velocity [1, 4]: 3.4 (1.4) cm/year
- Height velocity SD for BA [1, 4]: 3.8 (1.3)
- Height velocity SD for CA [1, 4]: 3.8 (1.7)
- Height Velocity ([1]; EQUAL (N = 12), 6-Month MK 0.4 mg/kg/day): 6.2 (1.8)
- Height Velocity ([1]; EQUAL (N = 14), 6-Month MK 0.8 mg/kg/day): 7.6 (1.3)
- growth (height velocity) response, GH compared with MK-0677, in words ([1]; EQUAL patient group (peak GH ≥5 μg/L to MK-0677 and baseline IGF-I >30 μg/L)): equal to GH treatment; also recorded: does not differ significantly from that to GH; also recorded: equivalent growth response
- Height Velocity ([1]; LOW (N = 10), 6-Month MK 0.4 mg/kg/day): 5.8 (2.1)
- Height Velocity ([1]; LOW (N = 10), 6-Month MK 0.8 mg/kg/day): 5.8 (2.2)
- Height Velocity ([1]; LOW and EQUAL combined, 6-Month MK 0.4 mg/kg/day (N = 22), mean (SD)): 6.0 (1.9)
- Height Velocity ([1]; LOW and EQUAL combined, 6-Month MK 0.8 mg/kg/day (N = 24), mean (SD)): 6.9 (1.9)
- growth (height velocity) response, GH compared with MK-0677, in words ([1]; LOW growth potential / severely GH deficient patients): inadequate growth response; also recorded: less responsive
- Delta height velocity [1, 5]: 2.3 (2.0) cm/year
- Height velocity SD for BA [1, 5]: 2.6 (2.4)
- Height velocity SD for CA [1, 5]: 2.9 (2.5)
- Height Velocity ([1]; equivalent growth potential, after 6 months of MK-677 0.8 mg/kg (N = 14)): 7.6 (1.3) cm/year
- Height Velocity ([1]; low growth potential, after 6 months of MK-677 0.8 mg/kg (N = 10)): 5.8 (2.2) cm/year
- growth response, GH compared with MK-0677, in words ([1]; patients with adequate GH secretion potential (Table 4B)): comparable with GH and was not statistically different
- growth rate at 6 months ([2]; MK-0677 0.8 mg/kg/d, 24 children, Merck Phase IIb study): 6.8±2.0 cm/y
- Change in height velocity SD for chronological age ([2]; MK-0677 0.8 mg/kg/d, after 6 months): 3.5±2.0
- change in growth rate ([2]; MK-0677 0.8 mg/kg/d, baseline to 6 months, 24 children): 3.4±2.1 cm/y
- Peak GH response to MK-0677 ([3]; Adequate GH Secretion Potential, group later given Placebo followed by rhGH (N = 15)): 39.2 (28.8) μg/L
- Peak GH response to MK-0677 ([3]; Adequate GH Secretion Potential, group later treated with MK-0677 0.8 mg/kg/d (N = 15)): 41.3 (27.8) μg/L
- Peak GH response to MK-0677 ([3]; Low GH Secretion Potential, group later given Placebo followed by rhGH (N = 5)): 2.9 (0.6) μg/L
- Peak GH response to MK-0677 ([3]; Low GH Secretion Potential, group later treated with MK-0677 0.8 mg/kg/d (N = 9)): 3.2 (1.3) μg/L
- Peak GH response to MK-0677 ([3]; equivalent growth potential, Placebo group later switched to rhGH (N = 13)): 51.2 (25.3) μg/L
- Peak GH response to MK-0677 ([3]; equivalent growth potential, group later treated with MK-0677 0.8 mg/kg (N = 14)): 43.7 (27.1) μg/L
- Peak GH response to MK-0677 ([3]; low growth potential, Placebo group later switched to rhGH (N = 9)): 6.7 (5.9) μg/L
- Peak GH response to MK-0677 ([3]; low growth potential, group later treated with MK-0677 0.8 mg/kg (N = 10)): 3.6 (1.7) μg/L
- Peak GH to MK-0677 ([3]; All subjects (73)): 32 ± 3.5 µg/L
- Peak GH to MK-0677 ([3]; High Potential (≥5 μg/L), 49 subjects): 43 ± 30 µg/L
- Peak GH to MK-0677 ([3]; Low Potential (≤5 μg/L), 24 subjects): 3.0 ± 1.0 µg/L

Molecule: rhGH: recombinant human growth hormone given as daily subcutaneous injection, standard GH therapy
- height velocity in the LOW group compared with the EQUAL group, in words [1]: greater in the LOW group than in the EQUAL group
- Delta height velocity [1, 6]: 4.9 (2.9) cm/year
- Height velocity SD for BA [1, 6]: 4.9 (2.6)
- Height velocity SD for CA [1, 6]: 5.1 (2.8)
- Height Velocity ([1]; EQUAL (N = 11), 6-Month rhGH): 8.8 (1.8)
- Delta Height Velocity, Biological Age (BA) [1, 7]: 6.2 (3.4) standard deviations
- Delta Height Velocity, Chronological Age (CA) [1, 7]: 7.6 (5.6) standard deviations
- Height Velocity ([1]; LOW (N = 9), 6-Month rhGH): 14.0 (4.1)
- Height Velocity ([1]; LOW and EQUAL combined, 6-Month GH 0.3 mg/kg/week (N = 20), mean (SD)): 11.1 (4.0)
- Height Velocity ([1]; LOW and EQUAL combined, GH (12-Month): 6 months rhGH after 6 months placebo (N = 20), paired T-test table): 11.14 (3.96)
- growth (height velocity) response, GH compared with MK-0677, in words ([1]; LOW growth potential / severely GH deficient patients, listed as GH): extremely sensitive to GH; also recorded: increase in height velocity
- Delta height velocity [1, 8]: 12.3 (4.4) cm/year
- Height velocity SD for BA [1, 8]: 10.0 (2.2)
- Height velocity SD for CA [1, 8]: 15.1 (5.1)
- Height Velocity ([1]; equivalent growth potential, after 6 months of GH ~42 μg/kg/day (N = 11)): 8.8 (1.8) cm/year
- Height Velocity ([1]; low growth potential, after 6 months of GH ~42 μg/kg/day (N = 9)): 14.0 (4.1) cm/year
- growth (height velocity) response, GH compared with MK-0677, in words ([1]; overall patient group, GH 0.3 mg/kg/week sc vs MK-0677 0.8 mg/kg/day oral): superior to MK-0677
- growth response, GH compared with MK-0677, in words ([1]; patients with low GH secretion potential (Table 3B)): superior
- height velocity SD score for chronological age ([2]; rhGH 0.043 mg/kg/day daily sc, 20 children after 6 months of placebo): 7.6±5.6
- increase in height velocity SD, GH compared with MK-0677 ([2]; rhGH 0.043 mg/kg/day vs MK-0677 0.8 mg/kg/d): twice as high
